Like-named read-outs stand apart in the source and are kept apart here.

Here are results for one compound from paper PMC7819857, “Identification of Inhibitors of Integrin Cytoplasmic Domain Interactions With Syk” (Frontiers in Immunology, 2021).

For test [1], the target named is T1, pITAM : Syk tandem SH2 domains (GST-Syk(6-370)) (Homo sapiens, UniProt P43405).
T1 construct: made in house; host or cells: E. coli BL21(DE3)
Nature of the test: pITAM-Syk AlphaScreen. The conditions noted are these: read-out: IC50, inhibition of pITAM-Syk binding. The text has this:
(§1) Figure 6 Selective inhibition of integrin signaling by ceftazidime. (A) Schematic illustration of the pITAM-Syk AlphaScreen used to test antagonist selectivity. (B) Comparison between ceftazidime (Ctaz) and pITAM peptide inhibition of pITAM-Syk binding in the AlphaScreen assay described in (A). […] Data are expressed as mean ± range from duplicate determinations. One of four representative assays is shown. (C) Effect of ceftazidime on Syk kinase activity. Ceftazidime (Ctaz) or Syk inhibitor P505-15 was used at 100 uM. Kinase activity is expressed as percent of maximum signal. Data are expressed as mean ± SEM (n = 3). **p < 0.01 (D) Selective effects of ceftazidime on integrin signaling. […] Phosphorylation of Syk (left and right panel) and Pyk-2 (center panel) was analyzed by immunoprecipitation and western blot. […] Quantification is shown below (left panel, n = 5; center panel, n = 3; right panel, n = 3), normalized to phosphorylation in suspension. Results are expressed as the mean ± SEM. […] Expression of interleukin (IL)-1β and monocyte chemoattractant protein (MCP)-1 genes was examined by quantitative real-time polymerase chain reaction. Data are expressed as expression levels relative to control cells kept in suspension. […] P-values were calculated by the Student t test. […]

Test [2] has as its target T2, full-length Syk (Homo sapiens, UniProt P43405).
T2 construct: ceftazidime had no effect on the catalytic function of full-length Syk
Nature of the test: Syk kinase activity assay. The following applies: 100 uM, 100-fold higher than the AlphaScreen IC50. It is filed as biochemical.
Excerpt: as §1

Test [3] deals with T3, integrin β3 cytoplasmic domain : tandem SH2 domains of Syk (GST-Syk(6-370)) (Homo sapiens, UniProt P43405).
T3 construct: the tandem SH2 domains of Syk (residues 6-370); made in house; host or cells: E. coli BL21(DE3)
Nature of the test: AlphaScreen of integrin β3 cytoplasmic domain peptide binding to GST-Syk(6-370). The protocol:
The following HTS assay was developed to identify antagonists of the interaction between the integrin β3 cytoplasmic domain and the non-receptor tyrosine kinase Syk. […] ( Figure 1E ). Background signals in this assay were determined by omitting the integrin β3 peptide. Specific assay conditions are described in Table 1 . […] Then, either dimethyl sulfoxide control or compound was added, followed by biotinylated β3 peptide, and avidin-coated AlphaScreen donor beads. After a 4-h incubation period at room temperature (while protected from light), assays plates were read on an Infinite M1000 (Tecan) multiplate reader (Ex. 680/30; Em. 570/100).
Figure 3 Dose-response curves in primary and orthogonal screens. (A) AlphaScreen dose-response curves. […] Data are expressed as mean fluorescence (Fl520) ± range from duplicates, and one representative experiment of “n” performed is shown. (B) Orthogonal ELISA-based dose-response assays. […] Data are expressed as mean abs450 ± SEM from triplicate determinations, and one of three representative experiments is shown. (C) Ceftazidime inhibition of β3 peptide binding to Syk from THP-1 whole cell lysate. THP-1 cell lysate (100 ug) was treated with or without ceftazidime (Ctaz) before incubation with β3-coated avidin-agarose beads, and bound Syk was measured by western blot (example shown in inset). Blank beads served as a negative control. Equal β3 peptide loading was verified by probing blots with avidin-HRP (not shown).

In test [4] the test system is THP-1 cells. Description: THP-1 cell adhesion to CS-1. The class given is cell-based, human. The conditions noted are these: cells loaded by glycerol shock. The procedure:
Supplemental Figure 6. Effects of ceftazidime on THP-1 adhesion to CS-1. Cells were loaded with ceftazidime by glycerol shock. After loading, cells were washed with media and loaded with calcein-AM. CS-1–conjugated bovine serum albumin was immobilized in 96-well plates (5 ug/ml), and adhesion assays were performed as previously described (1). Data are expressed as average fluorescence ± standard deviation from triplicates. One of two representative experiments is shown. The green line represents cell adhesion in the absence of ceftazidime.

The target in test [5] is T4, GST-free Syk(6-370) (Homo sapiens, UniProt P43405).
T4 construct: Syk 6-370 (GST tag removed by thrombin cleavage) was used; GST (N, cleaved yes); made in house; host or cells: E. coli BL21(DE3)
Nature of the test: Thermal denaturation assay (SYPRO orange). The following applies: Syk(6-370) 2 µM, dose-dependent. The class given is binding. The protocol: In this assay, Syk 6-370 (GST tag removed by thrombin cleavage) was used. Thrombin (GE Healthcare cat#270846, reconstituted in PBS to 1 unit/ul) was applied to the GST-Syk 6-370 protein bound to the Glutathione Sepharose beads. The GST-tag was cleaved with 20 unit/1 ml of protein-GST beads in PBS overnight at room temperature. After chromatography and additional cleaning on GST-beads, the purified protein was verified by SDS-PAGE. For thermal denaturation experiments, GST-free Syk(6-370) was used at a final concentration of 2 µM and SYPRO orange (Thermo Scientific, cat# S6650) at a 0.08% (v/v) dilution (from a 5000x stock). Compounds were used at indicated concentrations. Numerous reaction buffers were initially screened, and a final buffer containing 25 mM HEPES (pH 7.5) with 100 mM NaCl was used. Assays were performed in 20 µl volumes, in triplicate, in 384-well plates (Applied Biosystems MicroAmp 384-well clear optical reaction plate, catalogue #4483285). Plates were sealed with Applied Biosystems Optical Adhesive Cover (cat#4360954) and centrifuged for 2 min at 800 × g at room temperature. Thermal denaturation was measured on a Quant Studio 6 Flex Real-time PCR system (Applied Biosystems). […]

For `CC(C)(O/N=C(\C(=O)N[C@@H]1C(=O)N2C(C(=O)[O-])=C(C[n+]3ccccc3)CS[C@H]12)c1csc(N)n1)C(=O)O` [ceftazidime], the IC50 is above 300000 nM in test [1]; 1020 ± 200 nM in test [3] (Figure 3A: biotinylated-b3(sh) peptide 30 nM, GST-Syk(6-370) 0.3 nM, read-out: IC50, AlphaScreen dose-response); 1020 to 4900 nM in test [3] (abstract summary for both compounds, read-out: IC50 range, inhibition of integrin β-subunit cytoplasmic domain binding to the tandem SH2 domains of Syk); 1000 nM in test [3] (as restated in the Discussion, read-out: IC50 in AlphaScreen assays); 1870 ± 200 nM in test [3] (biotinylated β chain peptide 30 nM, GST-Syk(6-370) 0.3 nM, Figure 4A, read-out: antagonist activity against β3 (value without measure name), AlphaScreen). In addition, the “effect on the catalytic function of full-length Syk” value in test [2] was “no effect”. The “fold difference in inhibition, primary screen over false-positive counter screen (hit criterion)” value in test [3] (re-sourced compounds, counter screen with biotinylated GST) is recorded as “greater than 3 fold”. In addition, the “inhibition of fluorescent signal in the primary screen, re-sourced compounds (hit criterion)” value in test [3] (re-sourced from a separate commercial source, 25 uM in text, 30 uM in legend of Figure 2C) is reported as “greater than 50%”. For the same compound, the “effect on THP-1 cell adhesion to CS-1” value in test [4] was “not due to ceftazidime inhibition of THP-1 cell adhesion to CS-1”. The “effect on melting temperature (Tm) of Syk(6-370)” value in test [5] is recorded as “decreased”.
